# Laboratory results as given in patent publication US7312188B2, “Peptide derivatives having β-secretase inhibitory activity” (priority 2003, dated 2007).
# Numbered stars: 1 amine (or outer) side, 2 acyl side, 3 side chain; on linkers, the order of the positions; unused ones are H or OH. Square brackets hold non-standard residues; d marks the D form. Apns = amino acid residue of (2S,3S)-3-amino-2-hydroxy-4-phenylbutanoic acid, O=C([C@@H](O)[C@H](Cc1ccccc1)N[*:1])[*:2]; β3hPhe(2R-OH) = O=C([C@H](O)[C@H](Cc1ccccc1)N[*:1])[*:2]
# Biological target: T1, recombinant human BACE-1 (rhBACE-1) (Homo sapiens, UniProt P56817)
# T1 construct: expressed as only an extracellular region (amino acid 1-460 residues) of recombinant human β-secretase; His tag (C); purchased R&D systems (Minneapolis, Minn.); host or cells: murine myeloma cell line NS0
# Experiment: BACE1 inhibitory activity, reverse phase HPLC quantitation of N-terminal fragment of fluorogenic substrate
# Format: biochemical
# Settings: 1 μL of inhibitor solution in DMSO (100 μM) in 50 μL reaction; MES buffer pH 5.0; 37° C., 60 minutes
# Procedure, shortened: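 rhBACE-1 ectodomain (residues 1-460, C-terminal His tag, NS0-expressed) in MES buffer pH 5.0 with inhibitor (diluted in DMSO, 100 μM solution) and MCA/DNP fluorogenic peptide (250 μM stock), 60 min at 37 °C, TCA stop. N-terminal fragment quantified by reverse-phase HPLC fluorescence (Ex 328/Em 393 nm); inhibition % derived.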
# T1 sequence (P56817 22-460 limits assumed): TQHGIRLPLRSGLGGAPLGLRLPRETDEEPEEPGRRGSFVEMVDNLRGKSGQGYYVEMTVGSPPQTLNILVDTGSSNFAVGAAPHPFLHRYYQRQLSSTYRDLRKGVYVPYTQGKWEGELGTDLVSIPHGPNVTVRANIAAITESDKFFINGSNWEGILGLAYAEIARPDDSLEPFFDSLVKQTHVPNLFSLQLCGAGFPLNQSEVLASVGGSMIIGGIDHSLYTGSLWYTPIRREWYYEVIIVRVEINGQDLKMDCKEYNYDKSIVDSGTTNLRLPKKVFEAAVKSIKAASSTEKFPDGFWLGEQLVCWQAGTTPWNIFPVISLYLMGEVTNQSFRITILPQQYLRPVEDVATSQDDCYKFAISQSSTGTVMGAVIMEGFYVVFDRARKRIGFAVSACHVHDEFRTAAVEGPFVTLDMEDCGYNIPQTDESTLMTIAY
Compound,inhibition at 2 µM,inhibition at 100 µM (stock),Activity (BACE1 inhibition %)
CC(C)[C@H](NC(=O)[C@@H](N)CCC(=O)O)C(=O)N[C@@H](Cc1cccc2ccccc12)C(=O)N[C@@H](Cc1ccccc1)[C@@H](O)C(=O)Nc1cccc(C(=O)O)c1 [Example 165],73.7%,–,–
CC(C)[C@H](NC(=O)[C@@H](N)CCC(=O)O)C(=O)N[C@@H](CCc1ccccc1)C(=O)N[C@@H](Cc1ccccc1)[C@@H](O)C(=O)Nc1cccc(C(=O)O)c1 [Example 166],84.9%,–,–
CC(C)[C@H](NC(=O)[C@@H](N)CCC(=O)O)C(=O)N[C@@H](Cc1ccc(Cl)cc1)C(=O)N[C@@H](Cc1ccccc1)[C@@H](O)C(=O)Nc1cccc(C(=O)O)c1 [Example 168],60%,–,–
CC(C)C[C@H](NC(=O)[C@@H](NC(=O)[C@@H](N)CCC(=O)O)c1ccccc1)C(=O)N[C@@H](Cc1ccccc1)[C@@H](O)C(=O)Nc1cccc(C(=O)O)c1 [Example 169],61.6%,–,–
CC(C)[C@H](NC(=O)[C@@H](N)CCC(=O)O)C(=O)N[C@@H](Cc1ccc(Cl)c(Cl)c1)C(=O)N[C@@H](Cc1ccccc1)[C@@H](O)C(=O)Nc1cccc(C(=O)O)c1 [Example 170],60.5%,–,–
CC(C)C[C@H](NC(=O)[C@@H](NC(=O)[C@@H](N)CNC(=O)c1cc(N)cc(C(=O)O)c1)C(C)C)C(=O)N[C@@H](Cc1ccccc1)[C@@H](O)C(=O)Nc1cccc(C(N)=O)c1 [Example 171],91.8%,–,–
CC(C)C[C@H](NC(=O)[C@@H](NC(=O)[C@@H](N)CNC(=O)c1cccc(O)c1O)C(C)C)C(=O)N[C@@H](Cc1ccccc1)[C@@H](O)C(=O)Nc1cccc(C(=O)O)c1 [Example 172],89.5%,–,–
CC(C)C[C@H](NC(=O)[C@@H](NC(=O)[C@@H](N)CNC(=O)c1ccc(O)cc1O)C(C)C)C(=O)N[C@@H](Cc1ccccc1)[C@@H](O)C(=O)Nc1cccc(C(=O)O)c1 [Example 173],–,86.1%,–
CC(C)C[C@H](NC(=O)[C@@H](NC(=O)[C@@H](N)CNC(=O)c1ccco1)C(C)C)C(=O)N[C@@H](Cc1ccccc1)[C@@H](O)C(=O)Nc1cccc(C(=O)O)c1 [Example 174],81.8%,–,–
CC(C)C[C@H](NC(=O)[C@@H](NC(=O)[C@@H](N)CNC(=O)c1cc(N)cc(C(=O)O)c1)C(C)C)C(=O)N[C@@H](CSc1ccccc1)[C@@H](O)C(=O)Nc1cccc(C(=O)O)c1 [Example 177],98.5%,–,–
Cc1cc(NC(=O)[C@H](O)[C@H](Cc2ccccc2)NC(=O)[C@H](CC(C)C)NC(=O)[C@@H](NC(=O)[C@@H](N)CCC(=O)O)C(C)C)cc(C)c1OCC(=O)O [Example 178],73.4%,–,–
CC(C)C[C@H](NC(=O)[C@@H](NC(=O)[C@@H](N)CCC(=O)O)C(C)C)C(=O)N[C@@H](Cc1ccccc1)[C@@H](O)C(=O)Nc1cc(C(N)=O)cc(C(=O)O)c1 [Example 179],83.7%,–,–
CNC(=O)c1cc(NC(=O)[C@H](O)[C@H](Cc2ccccc2)NC(=O)[C@H](CC(C)C)NC(=O)[C@@H](NC(=O)[C@@H](N)CCC(=O)O)C(C)C)cc(C(=O)NC)c1 [Example 180],51.4%,–,–
COC(=O)c1cc(N)cc(C(=O)NC[C@H](N)C(=O)N[C@H](C(=O)N[C@@H](CC(C)C)C(=O)N[C@@H](Cc2ccccc2)[C@@H](O)C(=O)Nc2cccc(C(=O)O)c2)C(C)C)c1 [Example 181],–,82.5%,–
CC(C)C[C@H](NC(=O)[C@@H](NC(=O)[C@@H](N)CCC(=O)O)C(C)C)C(=O)N[C@@H](Cc1ccccc1)[C@@H](O)C(=O)Nc1cc(Cl)c(OCC(N)=O)c(Cl)c1 [Example 182],–,75.7%,–
COC(=O)c1cccc(C(=O)NC[C@H](N)C(=O)N[C@H](C(=O)N[C@@H](CC(C)C)C(=O)N[C@@H](Cc2ccccc2)[C@@H](O)C(=O)Nc2cccc(C(=O)O)c2)C(C)C)c1 [Example 183],–,52.1%,–
CC(C)C[C@H](NC(=O)[C@@H](NC(=O)[C@@H](N)CCC(=O)O)C(C)C)C(=O)N[C@@H](Cc1ccccc1)[C@@H](O)C(=O)Nc1cc(Br)c(OCC(=O)O)c(Br)c1 [Example 184],–,88.1%,–
CC(C)C[C@H](NC(=O)[C@@H](NC(=O)[C@@H](N)CNC(=O)c1nnn[nH]1)C(C)C)C(=O)N[C@@H](Cc1ccccc1)[C@@H](O)C(=O)Nc1cccc(-c2nnn[nH]2)c1 [Example 185],–,100%,–
CC(C)C[C@H](NC(=O)[C@@H](NC(=O)[C@@H](N)CNC(=O)c1[nH]c(=O)[nH]c(=O)c1F)C(C)C)C(=O)N[C@@H](Cc1ccccc1)[C@@H](O)C(=O)Nc1cccc(-c2nnn[nH]2)c1 [Example 187],–,100%,–
CC(C)[C@H](NC(=O)[C@@H](N)CNC(=O)c1cc(O)ccc1O)C(=O)N[C@@H](CC1CCCCC1)C(=O)N[C@@H](Cc1ccccc1)[C@@H](O)C(=O)Nc1cccc(-c2nnn[nH]2)c1 [Example 188],–,99.5%,–
CC(C)[C@H](NC(=O)[C@@H](N)CNC(=O)c1[nH]c(=O)[nH]c(=O)c1F)C(=O)N[C@@H](CC1CCCCC1)C(=O)N[C@@H](Cc1ccccc1)[C@@H](O)C(=O)Nc1cccc(-c2nnn[nH]2)c1 [Example 189],–,100%,–
CC(C)C[C@H](NC(=O)[C@@H](NC(=O)[C@@H](N)CNC(=O)c1cc(O)ccc1O)C(C)C)C(=O)N[C@@H](Cc1ccccc1)[C@@H](O)C(=O)Nc1cccc(-c2nnn[nH]2)c1 [Example 190],–,99.3%,–
H-Glu-Val-Leu-Apns-Asp-Ala-Glu-Phe-OH ({H2N-Glu-Val-Leu-Apns}-DAEF-OH; SMILES CC(C)C[C@H](NC(=O)[C@@H](NC(=O)[C@@H](N)CCC(=O)O)C(C)C)C(=O)N[C@@H](Cc1ccccc1)[C@H](O)C(=O)N[C@@H](CC(=O)O)C(=O)N[C@@H](C)C(=O)N[C@@H](CCC(=O)O)C(=O)N[C@@H](Cc1ccccc1)C(=O)O) [Example 18],–,–,53.38%
H-Glu-Val-Leu-Pns-Ala-Ala-Glu-Phe-OH (H-EVL[β3hPhe(2R-OH)]AAEF-OH; SMILES CC(C)C[C@H](NC(=O)[C@@H](NC(=O)[C@@H](N)CCC(=O)O)C(C)C)C(=O)N[C@@H](Cc1ccccc1)[C@@H](O)C(=O)N[C@@H](C)C(=O)N[C@@H](C)C(=O)N[C@@H](CCC(=O)O)C(=O)N[C@@H](Cc1ccccc1)C(=O)O) [Example 13],–,–,53.71%
H-Glu-Val-Leu-Pns-Ala-Glu-Glu-Phe-OH (H-EVL[β3hPhe(2R-OH)]AEEF-OH; SMILES CC(C)C[C@H](NC(=O)[C@@H](NC(=O)[C@@H](N)CCC(=O)O)C(C)C)C(=O)N[C@@H](Cc1ccccc1)[C@@H](O)C(=O)N[C@@H](C)C(=O)N[C@@H](CCC(=O)O)C(=O)N[C@@H](CCC(=O)O)C(=O)N[C@@H](Cc1ccccc1)C(=O)O) [Example 27],–,–,78.43%
H-Glu-Val-Leu-Pns-Ala-Phe-Glu-Phe-OH (H-EVL[β3hPhe(2R-OH)]AFEF-OH; SMILES CC(C)C[C@H](NC(=O)[C@@H](NC(=O)[C@@H](N)CCC(=O)O)C(C)C)C(=O)N[C@@H](Cc1ccccc1)[C@@H](O)C(=O)N[C@@H](C)C(=O)N[C@@H](Cc1ccccc1)C(=O)N[C@@H](CCC(=O)O)C(=O)N[C@@H](Cc1ccccc1)C(=O)O) [Example 26],–,–,60.23%
H-Glu-Val-Leu-Pns-Asp-Ala-Gln-Phe-OH (H-EVL[β3hPhe(2R-OH)]DAQF-OH; SMILES CC(C)C[C@H](NC(=O)[C@@H](NC(=O)[C@@H](N)CCC(=O)O)C(C)C)C(=O)N[C@@H](Cc1ccccc1)[C@@H](O)C(=O)N[C@@H](CC(=O)O)C(=O)N[C@@H](C)C(=O)N[C@@H](CCC(N)=O)C(=O)N[C@@H](Cc1ccccc1)C(=O)O) [Example 28],–,–,55.88%
